Measured values: the supplement of paper PMC12137928
Counter-ions that a name gives are not always drawn.

Tests used:
HCT116 [1] = conditions: 72 h
Outline: (§1)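 After seeding at 250 cells per well in 1536-well plates, HCT116 cells were given 5 h to attach. CellTiter-Glo luminescence, scaled to 0% for vehicle and -100% for positive control, was pattern-corrected. Fitting with a four-parameter Hill model produced IC50 and maximal efficacy.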

HCT116 [2] = assay: efficacy (maximum % inhibition of viability vs DMSO); higher = more cytotoxic; conditions: 72 h
Outline: as §1

| SMILES | IC50 cell viability (HCT116 [1]; ICRF193 0 nM) [µM] | IC50 cell viability (HCT116 [1]; ICRF193 200 nM) [µM] | efficacy (HCT116 [2]; ICRF193 0 nM) [%] | efficacy (HCT116 [2]; ICRF193 200 nM) [%] |
| --- | --- | --- | --- | --- |
| CS(=O)(=O)CCNCc1ccc(-c2ccc3ncnc(Nc4ccc(OCc5cccc(F)c5)c(Cl)c4)c3c2)o1 [Lapatinib] | 16.4 | 20.6 | 106 | 110 |
| Cc1oncc1C(=O)Nc1ccc(C(F)(F)F)cc1 [Leflunomide] | 20.6 | 13 | 57.6 | 55.8 |
| COC(=O)C1=C(C)NC(C)=C(C(=O)OC(C)(C)CN(C)CCC(c2ccccc2)c2ccccc2)C1c1cccc([N+](=O)[O-])c1 (configuration not stated) [Lercanidipine hydrochloride] | 20.6 | 16.4 | 102 | 89.3 |
| C=CCN1CC[C@]23CCCC[C@H]2[C@H]1Cc1ccc(O)cc13 [Levallorphan] | > 45.8 | 25.9 | – | 42.1 |
| COc1ccc(CN2CCN(C(c3ccc(F)cc3)c3ccc(F)cc3)CC2)c(OC)c1OC [Lomerizine dihydrochloride] | 20.6 | 23.1 | 130 | 104 |
| O=C(NC1CCN(CCCCC2(C(=O)NCC(F)(F)F)c3ccccc3-c3ccccc32)CC1)c1ccccc1-c1ccc(C(F)(F)F)cc1 [Lomitapide] | 16.4 | 20.6 | 117 | 115 |
| Cc1cccc(C)c1OCC(=O)N[C@@H](Cc1ccccc1)[C@@H](O)C[C@H](Cc1ccccc1)NC(=O)[C@H](C(C)C)N1CCCNC1=O [Lopinavir] | 18.3 | 29.1 | 50.2 | 73.7 |
| O=C(NC(=O)c1c(F)cccc1F)Nc1cc(Cl)c(OC(F)(F)C(F)C(F)(F)F)cc1Cl (configuration not stated) [Lufenuron] | > 45.8 | 18.3 | – | 41.2 |
| N#C/C(=C1/SC[C@@H](c2ccc(Cl)cc2Cl)S1)n1ccnc1 [Luliconazole] | > 45.8 | 20.6 | – | 44.9 |
| CCCCN(CCCC)CC(O)c1cc(Cl)cc2c1-c1ccc(Cl)cc1/C2=C/c1ccc(Cl)cc1 (configuration not stated) [Lumefantrine] | 23.1 | 18.3 | 120 | 113 |
| NCCCC[C@H](NC(=O)[C@@H]1CCCN1C(=O)[C@@H]1CSSC[C@H](N)C(=O)N[C@@H](Cc2ccc(O)cc2)C(=O)N[C@@H](Cc2ccccc2)C(=O)N[C@@H](CCC(N)=O)C(=O)N[C@@H](CC(N)=O)C(=O)N1)C(=O)NCC(N)=O [Lypressin] | > 45.8 | 29.1 | – | 51.6 |
| NC(=O)c1cccc2cn(-c3ccc([C@@H]4CCCNC4)cc3)nc12 [MK-4827] | 29.1 | 18.3 | 72.9 | 114 |
| CC(C)C[C@H](NC(=O)CNC(=O)c1cc(Cl)ccc1Cl)B1OC(=O)C(CC(=O)O)(CC(=O)O)O1 [MLN9708] | 0.13 | 0.103 | 96.2 | 94.4 |
| CN(C)c1ccc(C(=C2C=CC(=[N+](C)C)C=C2)c2ccccc2)cc1 [Malachite green oxalate] | 0.183 | 0.231 | 98.5 | 96 |
| COC(=O)C1=C(C)NC(C)=C(C(=O)OCCN2CCN(C(c3ccccc3)c3ccccc3)CC2)C1c1cccc([N+](=O)[O-])c1 (configuration not stated) [Manidipine] | 18.3 | 18.3 | 92 | 90.1 |
| CNCCCC12CCC(c3ccccc31)c1ccccc12 [Maprotiline hydrochloride] | > 45.8 | 29.1 | – | 86.5 |
| COc1ccc(C(C)(C)C)cc1CN[C@H]1C2CCN(CC2)[C@H]1C(c1ccccc1)c1ccccc1 [Maropitant] | 18.3 | 18.3 | 60.3 | 96 |
| Cc1ccc(NC(=O)c2ccc(CN3CCN(C)CC3)cc2)cc1Nc1nc(-c2cccnc2)cs1 [Masitinib] | 11.6 | 20.6 | 43.6 | 66.8 |
| COC(=O)Nc1nc2cc(C(=O)c3ccccc3)ccc2[nH]1 [Mebendazole] | 20.6 | 0.92 | 55.3 | 61.9 |
| Cc1cccc(CN2CCN(C(c3ccccc3)c3ccc(Cl)cc3)CC2)c1 (configuration not stated) [Meclizine hydrochloride] | > 45.8 | 29.1 | – | 49.1 |
| C=C1C[C@H]2[C@@H]3C=C(C)C4=CC(=O)CC[C@]4(C)[C@H]3CC[C@]2(C)[C@@]1(OC(C)=O)C(C)=O [Melengestrol acetate] | > 45.8 | 18.3 | – | 40.9 |
| CC1(S(=O)(=O)O)CC(=O)c2ccccc2C1=O (configuration not stated) [Menadione sodium bisulfite] | 18.3 | 29.1 | 102 | 40.7 |
| c1ccc2c(c1)Sc1ccccc1N2CC1CN2CCC1CC2 (configuration not stated) [Mequitazine] | 16.4 | 20.6 | 103 | 96.8 |
| CN1CCC(CN2c3ccccc3Sc3ccccc32)C1 (configuration not stated) [Methdilazine hydrochloride] | > 45.8 | 18.3 | – | 53.5 |
| CN(Cc1cnc2nc(N)nc(N)c2n1)c1ccc(C(=O)N[C@@H](CCC(=O)O)C(=O)O)cc1 [Methotrexate] | 0.146 | 0.146 | 91.8 | 93.9 |
| COc1ccc2c(c1)N(C[C@H](C)CN(C)C)c1ccccc1S2 [Methotrimeprazine maleat salt] | > 45.8 | 23.1 | – | 50.8 |
| CO[C@H]1[C@@H](O)C[C@H](O[C@H]2[C@@H](O)C[C@H](O[C@H]3[C@@H](O)C[C@H](O[C@H]4CC[C@@]5(C)[C@H](CC[C@@H]6[C@@H]5C[C@@H](O)[C@]5(C)[C@@H](C7=CC(=O)OC7)CC[C@]65O)C4)O[C@@H]3C)O[C@@H]2C)O[C@@H]1C [Methyldigoxin] | 0.0891 | 0.1 | 90.7 | 86.6 |

Further lines, with some results ahead:

| IC50 cell viability (HCT116 [1]; ICRF193 0 nM) [µM] | IC50 cell viability (HCT116 [1]; ICRF193 200 nM) [µM] | SMILES | efficacy (HCT116 [2]; ICRF193 0 nM) [%] | efficacy (HCT116 [2]; ICRF193 200 nM) [%] |
| --- | --- | --- | --- | --- |
| 23.1 | 25.9 | COC(=O)C1=C(C)NC(COC(N)=O)=C(C(=O)OC(C)C)C1c1cccc(Cl)c1Cl (configuration not stated) [Lemildipine] | 76.8 | 76.7 |
| 20.6 | 16.4 | CCCC[C@H](C)C[C@H](O)/C=C/[C@H]1[C@H](O)CC(=O)[C@@H]1CCCC/C=C/C(=O)O [Limaprost] | 81.4 | 77.6 |
| 14.6 | 18.3 | CN(C)C(=O)C(CCN1CCC(O)(c2ccc(Cl)cc2)CC1)(c1ccccc1)c1ccccc1 [Loperamide hydrochloride] | 59.4 | 54.9 |
| > 45.8 | 20.6 | CC[C@H](C)C(=O)O[C@H]1C[C@@H](C)C=C2C=C[C@H](C)[C@H](CC[C@@H]3C[C@@H](O)CC(=O)O3)[C@H]21 [Lovastatin] | – | 46.5 |
| > 45.8 | 29.1 | O=C1[C@@H]2[C@H]3CC[C@H](C3)[C@@H]2C(=O)N1C[C@@H]1CCCC[C@H]1CN1CCN(c2nsc3ccccc23)CC1 [Lurasidone (Hydrochloride)] | – | 46.3 |
| > 45.8 | 11.6 | CN1CCc2c(c3ccccc3n2Cc2ccccc2)C1 [MEBHYDROLIN] | – | 41.4 |
| 29.1 | 18.3 | C=C[C@@H]1C[C@]1(NC(=O)[C@@H]1C[C@@H]2CN1C(=O)[C@H](C(C)(C)C)NC(=O)O[C@@H]1C[C@H]1CCCCCc1nc3ccc(OC)cc3nc1O2)C(=O)NS(=O)(=O)C1CC1 [MK-5172] | 91.6 | 81.1 |
| 29.1 | 20.6 | NS(=O)(=O)c1ccc(-n2nc(C(F)(F)F)cc2-c2ccc(F)cc2)cc1 [Mavacoxib] | 56.9 | 51.5 |
| 20.6 | 29.1 | C=C1c2c(Cl)ccc(O)c2C(=O)C2=C(O)[C@]3(O)C(=O)C(C(N)=O)=C(O)[C@@H](N(C)C)[C@@H]3[C@@H](O)[C@H]12.O=C(O)c1cc(S(=O)(=O)O)ccc1O [Meclocycline sulfosalicylate] | 54.3 | 64 |
| 23.1 | 23.1 | OC(c1cc(C(F)(F)F)nc2c(C(F)(F)F)cccc12)C1CCCCN1 (configuration not stated) [Mefloquine hydrochloride] | 116 | 98 |
| > 45.8 | 29.1 | CN(C)CCC=C1c2ccccc2C(C)(C)c2ccccc21 [Melitracen hydrochloride] | – | 61.4 |
| > 45.8 | 20.6 | Cc1cc(O)c2ccccc2c1O [Menadiol] | – | 41.5 |
